Reference: patent US20230085307A1, “PYRIDAZINONE COMPOUND AND HERBICIDE” (NISSAN CHEMICAL CORPORATION, priority 2019, published 2023)

Tests used:
[1] = tested on: late watergrass; assay: Test Example 1: herbicidal activity, application before weed generation under submerged conditions (Table 16, symbol A); format: in vivo, late watergrass (Echinochloa oryzicola); conditions: amount of applied herbicide 320 g/ha
Procedure, shortened: (§1)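 Alluvial soil was flooded to 4 cm depth, weed seeds were sown mixed and 2.5-leaf rice seedlings were transplanted. On sowing day, the compound's emulsion, diluted in water to a set dose, was applied to the water surface. Plants grew at 25–30 °C and were scored 0–5 after three weeks.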

[2] = tested on: Japanese bulrush; assay: Test Example 1: herbicidal activity, application before weed generation under submerged conditions (Table 16, symbol B); format: in vivo, Japanese bulrush (Schoenoplectus juncoides); conditions: amount of applied herbicide 320 g/ha
Procedure, shortened: as §1

[3] = tested on: oval-leafed pondweed; assay: Test Example 1: herbicidal activity, application before weed generation under submerged conditions (Table 16, symbol C); format: in vivo, oval-leafed pondweed (Monochoria vaginalis); conditions: amount of applied herbicide 320 g/ha
Procedure, shortened: as §1

[4] = tested on: barnyard grass; assay: Test Example 3: herbicidal effect by foliage application, Wagner pot (Table 18, symbol H); format: in vivo, barnyard grass (Echinochloa crus-galli)
Procedure, shortened: (§2)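 Plants were sown in alluvial soil held under 0.1–0.5 cm standing water and grown 14 days in a greenhouse at 25–30 °C. An emulsifiable formulation, water-diluted to the set dose, was then sprayed onto the foliage, and effects were scored three weeks later using previously defined criteria.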

[5] = tested on: Chinese sprangletop; assay: Test Example 3: herbicidal effect by foliage application, Wagner pot (Table 18, symbol D); format: in vivo, chinese sprangletop (Leptochloa chinensis)
Procedure, shortened: as §2

[6] = tested on: rice flat sedge; assay: Test Example 3: herbicidal effect by foliage application, Wagner pot (Table 18, symbol E); format: in vivo, rice flat sedge (Cyperus iria)
Procedure, shortened: as §2

[7] = tested on: southern crabgrass; assay: Test Example 4: herbicidal effect by soil treatment (Table 19, symbol F); format: in vivo, southern crabgrass (Digitaria ciliaris); conditions: amount of applied herbicide 320 g/ha
Procedure, shortened: (§3)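 Pre-emergence style soil spray: seeds under ~1.5 cm sterilized diluvial soil received a uniform coat of emulsion diluted to the predetermined herbicide amount. Greenhouse 25–30° C; readout at week three on previously defined criteria.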

[8] = tested on: green foxtail; assay: Test Example 4: herbicidal effect by soil treatment (Table 19, symbol G); format: in vivo, green foxtail (Setaria viridis); conditions: amount of applied herbicide 320 g/ha
Procedure, shortened: as §3

[9] = tested on: barnyard grass; assay: Test Example 4: herbicidal effect by soil treatment (Table 19, symbol H); format: in vivo, barnyard grass (Echinochloa crus-galli); conditions: amount of applied herbicide 320 g/ha
Procedure, shortened: as §3

[10] = tested on: wild oat; assay: Test Example 4: herbicidal effect by soil treatment (Table 19, symbol I); format: in vivo, wild oat (Avena fatua); conditions: amount of applied herbicide 320 g/ha
Procedure, shortened: as §3

[11] = tested on: blackgrass; assay: Test Example 4: herbicidal effect by soil treatment (Table 19, symbol J); format: in vivo, blackgrass (Alopecurus myosuroides); conditions: amount of applied herbicide 320 g/ha
Procedure, shortened: as §3

[12] = tested on: Italian ryegrass; assay: Test Example 4: herbicidal effect by soil treatment (Table 19, symbol K); format: in vivo, Italian ryegrass (Lolium multiflorum); conditions: amount of applied herbicide 320 g/ha
Procedure, shortened: as §3

[13] = tested on: windgrass; assay: Test Example 4: herbicidal effect by soil treatment (Table 19, symbol L); format: in vivo, windgrass (Apera spica-venti); conditions: amount of applied herbicide 320 g/ha
Procedure, shortened: as §3

[14] = tested on: velvetleaf; assay: Test Example 4: herbicidal effect by soil treatment (Table 19, symbol M); format: in vivo, velvetleaf (Abutilon theophrasti); conditions: amount of applied herbicide 320 g/ha
Procedure, shortened: as §3

[15] = tested on: redroot pigweed; assay: Test Example 4: herbicidal effect by soil treatment (Table 19, symbol N); format: in vivo, redroot pigweed (Amaranthus retroflexus); conditions: amount of applied herbicide 320 g/ha
Procedure, shortened: as §3

[16] = tested on: lambsquarters; assay: Test Example 4: herbicidal effect by soil treatment (Table 19, symbol O); format: in vivo, lambsquarters (Chenopodium album); conditions: amount of applied herbicide 320 g/ha
Procedure, shortened: as §3

[17] = tested on: chickweed; assay: Test Example 4: herbicidal effect by soil treatment (Table 19, symbol P); format: in vivo, common chickweed (Stellaria media); conditions: amount of applied herbicide 320 g/ha
Procedure, shortened: as §3

[18] = tested on: persian speedwell; assay: Test Example 4: herbicidal effect by soil treatment (Table 19, symbol R); format: in vivo, Persian speedwell (Veronica persica); conditions: amount of applied herbicide 320 g/ha
Procedure, shortened: as §3

[19] = tested on: southern crabgrass; assay: Test Example 5: herbicidal effect by foliage application, plastic box (Table 20, symbol F); format: in vivo, southern crabgrass (Digitaria ciliaris); conditions: foliage application, 320 g/ha, three weeks after application
Procedure, shortened: (§4)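 Plants were sown into sterilized diluvial soil under about 1.5 cm cover and kept in a greenhouse at 25° C. to 30° C. Fourteen days on, foliage received an even spray of the diluted emulsion. Herbicidal or crop effect was judged three weeks afterwards.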

[20] = tested on: green foxtail; assay: Test Example 5: herbicidal effect by foliage application, plastic box (Table 20, symbol G); format: in vivo, green foxtail (Setaria viridis); conditions: foliage application, 320 g/ha, three weeks after application
Procedure, shortened: as §4

[21] = tested on: barnyard grass; assay: Test Example 5: herbicidal effect by foliage application, plastic box (Table 20, symbol H); format: in vivo, barnyard grass (Echinochloa crus-galli); conditions: foliage application, 320 g/ha, three weeks after application
Procedure, shortened: as §4

[22] = tested on: wild oat; assay: Test Example 5: herbicidal effect by foliage application, plastic box (Table 20, symbol I); format: in vivo, wild oat (Avena fatua); conditions: foliage application, 320 g/ha, three weeks after application
Procedure, shortened: as §4

[23] = tested on: blackgrass; assay: Test Example 5: herbicidal effect by foliage application, plastic box (Table 20, symbol J); format: in vivo, blackgrass (Alopecurus myosuroides); conditions: foliage application, 320 g/ha, three weeks after application
Procedure, shortened: as §4

[24] = tested on: Italian ryegrass; assay: Test Example 5: herbicidal effect by foliage application, plastic box (Table 20, symbol K); format: in vivo, Italian ryegrass (Lolium multiflorum); conditions: foliage application, 320 g/ha, three weeks after application
Procedure, shortened: as §4

[25] = tested on: windgrass; assay: Test Example 5: herbicidal effect by foliage application, plastic box (Table 20, symbol L); format: in vivo, windgrass (Apera spica-venti); conditions: foliage application, 320 g/ha, three weeks after application
Procedure, shortened: as §4

[26] = tested on: velvetleaf; assay: Test Example 5: herbicidal effect by foliage application, plastic box (Table 20, symbol M); format: in vivo, velvetleaf (Abutilon theophrasti); conditions: foliage application, 320 g/ha, three weeks after application
Procedure, shortened: as §4

[27] = tested on: redroot pigweed; assay: Test Example 5: herbicidal effect by foliage application, plastic box (Table 20, symbol N); format: in vivo, redroot pigweed (Amaranthus retroflexus); conditions: foliage application, 320 g/ha, three weeks after application
Procedure, shortened: as §4

[28] = tested on: lambsquarters; assay: Test Example 5: herbicidal effect by foliage application, plastic box (Table 20, symbol O); format: in vivo, lambsquarters (Chenopodium album); conditions: foliage application, 320 g/ha, three weeks after application
Procedure, shortened: as §4

[29] = tested on: chickweed; assay: Test Example 5: herbicidal effect by foliage application, plastic box (Table 20, symbol P); format: in vivo, common chickweed (Stellaria media); conditions: foliage application, 320 g/ha, three weeks after application
Procedure, shortened: as §4

[30] = tested on: persian speedwell; assay: Test Example 5: herbicidal effect by foliage application, plastic box (Table 20, symbol R); format: in vivo, Persian speedwell (Veronica persica); conditions: foliage application, 320 g/ha, three weeks after application
Procedure, shortened: as §4

[31] = amount of applied herbicide 320 g/ha

SMILES | Herbicidal effect, A: late watergrass [1] | Herbicidal effect, B: Japanese bulrush [2] | Herbicidal effect, C: oval-leafed pondweed [3] | F: southern crabgrass, herbicidal effect grade [19] | G: green foxtail, herbicidal effect grade [20] | H: barnyard grass, herbicidal effect grade [21] | I: wild oat, herbicidal effect grade [22] | J: blackgrass, herbicidal effect grade [23] | K: Italian ryegrass, herbicidal effect grade [24] | L: windgrass, herbicidal effect grade [25] | M: velvetleaf, herbicidal effect grade [26] | N: redroot pigweed, herbicidal effect grade [27] | O: lambsquarters, herbicidal effect grade [28] | P: chickweed, herbicidal effect grade [29] | R: persian speedwell, herbicidal effect grade [30] | further results
COc1ccccc1-c1sc2cc(F)ccc2c1-c1c(OC(=O)COc2ccccc2)c(C)nn(C)c1=O [3-021] | 3 (Herbicidal rate of 40% or more and less than 70%) | 3 (Herbicidal rate of 40% or more and less than 70%) | 4 (Herbicidal rate of 70% or more and less than 90%) | 4 (Herbicidal rate of 70% or more and less than 90%) | 5 (Herbicidal rate of 90% or more (almost completely withered)) | 5 (Herbicidal rate of 90% or more (almost completely withered)) | 4 (Herbicidal rate of 70% or more and less than 90%) | 4 (Herbicidal rate of 70% or more and less than 90%) | 4 (Herbicidal rate of 70% or more and less than 90%) | 5 (Herbicidal rate of 90% or more (almost completely withered)) | 5 (Herbicidal rate of 90% or more (almost completely withered)) | 5 (Herbicidal rate of 90% or more (almost completely withered)) | 5 (Herbicidal rate of 90% or more (almost completely withered)) | 5 (Herbicidal rate of 90% or more (almost completely withered)) | 4 (Herbicidal rate of 70% or more and less than 90%) | herbicidal effect on H: barnyard grass [4, 31]: 5 (Herbicidal rate of 90% or more (almost completely withered)); herbicidal effect on D: Chinese sprangletop [5, 31]: 3 (Herbicidal rate of 40% or more and less than 70%); herbicidal effect on E: rice flat sedge [6, 31]: 5 (Herbicidal rate of 90% or more (almost completely withered)); herbicidal effect, F: southern crabgrass [7]: 3 (Herbicidal rate of 40% or more and less than 70%); herbicidal effect, G: green foxtail [8]: 4 (Herbicidal rate of 70% or more and less than 90%); herbicidal effect, H: barnyard grass [9]: 4 (Herbicidal rate of 70% or more and less than 90%); herbicidal effect, I: wild oat [10]: 1 (Herbicidal rate of 5% or more and less than 20%); herbicidal effect, J: blackgrass [11]: 4 (Herbicidal rate of 70% or more and less than 90%); herbicidal effect, K: Italian ryegrass [12]: 4 (Herbicidal rate of 70% or more and less than 90%); herbicidal effect, L: windgrass [13]: 3 (Herbicidal rate of 40% or more and less than 70%); herbicidal effect, M: velvetleaf [14]: 0 (Herbicidal rate of 5% or less (almost no effect)); herbicidal effect, N: redroot pigweed [15]: 4 (Herbicidal rate of 70% or more and less than 90%); herbicidal effect, O: lambsquarters [16]: 4 (Herbicidal rate of 70% or more and less than 90%); herbicidal effect, P: chickweed [17]: 3 (Herbicidal rate of 40% or more and less than 70%); herbicidal effect, R: persian speedwell [18]: 4 (Herbicidal rate of 70% or more and less than 90%)
Cc1nn(C)c(=O)c(-c2c(-c3ccc4c(c3)OCCO4)sc3cc(Cl)ccc23)c1O [3-047] | 3 (Herbicidal rate of 40% or more and less than 70%) | 2 (Herbicidal rate of 20% or more and less than 40%) | 0 (Herbicidal rate of 5% or less (almost no effect)) | 0 (Herbicidal rate of 5% or less (almost no effect)) | 0 (Herbicidal rate of 5% or less (almost no effect)) | 0 (Herbicidal rate of 5% or less (almost no effect)) | 0 (Herbicidal rate of 5% or less (almost no effect)) | 0 (Herbicidal rate of 5% or less (almost no effect)) | 0 (Herbicidal rate of 5% or less (almost no effect)) | 0 (Herbicidal rate of 5% or less (almost no effect)) | 1 (Herbicidal rate of 5% or more and less than 20%) | 0 (Herbicidal rate of 5% or less (almost no effect)) | 2 (Herbicidal rate of 20% or more and less than 40%) | 3 (Herbicidal rate of 40% or more and less than 70%) | 5 (Herbicidal rate of 90% or more (almost completely withered)) | herbicidal effect on barnyard grass (H) ([4]; 320 g/ha): 3 (Herbicidal rate of 40% or more and less than 70%); herbicidal effect on Chinese sprangletop (D) ([5]; 320 g/ha): 3 (Herbicidal rate of 40% or more and less than 70%); herbicidal effect on rice flat sedge (E) ([6]; 320 g/ha): 2 (Herbicidal rate of 20% or more and less than 40%); F: southern crabgrass, herbicidal effect grade [7]: 0 (Herbicidal rate of 5% or less (almost no effect)); G: green foxtail, herbicidal effect grade [8]: 0 (Herbicidal rate of 5% or less (almost no effect)); H: barnyard grass, herbicidal effect grade [9]: 0 (Herbicidal rate of 5% or less (almost no effect)); I: wild oat, herbicidal effect grade [10]: 0 (Herbicidal rate of 5% or less (almost no effect)); J: blackgrass, herbicidal effect grade [11]: 0 (Herbicidal rate of 5% or less (almost no effect)); K: Italian ryegrass, herbicidal effect grade [12]: 0 (Herbicidal rate of 5% or less (almost no effect)); L: windgrass, herbicidal effect grade [13]: 0 (Herbicidal rate of 5% or less (almost no effect)); M: velvetleaf, herbicidal effect grade [14]: 0 (Herbicidal rate of 5% or less (almost no effect)); N: redroot pigweed, herbicidal effect grade [15]: 1 (Herbicidal rate of 5% or more and less than 20%); O: lambsquarters, herbicidal effect grade [16]: 3 (Herbicidal rate of 40% or more and less than 70%); P: chickweed, herbicidal effect grade [17]: 0 (Herbicidal rate of 5% or less (almost no effect)); R: persian speedwell, herbicidal effect grade [18]: 5 (Herbicidal rate of 90% or more (almost completely withered))
